Experimental data: patent publication US20110245334A1, “USE OF RACEMATES OF PINOCEMBRIN IN PREPARING MEDICAMENTS FOR TREATING STROKE” (CSPC Zhonggi Pharmaceutical Technology (Shijiazhuang) Co. …, priority 2008, published 2011)

Key:
[1] = test system: cerebral ischemic tissue in MCAO rats; test: Energy metabolism indexes in cerebral ischemic tissue, MCAO; assay type: in vivo, rat; conditions: for increase of energy index relative to the model group: 24 hours of cerebral ischemia; for ADP / AMP / ATP / CrP / Energy Load: cerebral ischemic tissue, MCAO rats
Excerpt: The obtained r values were respectively rATP=0.9897, rADP=0.9896, rAMP=0.9893, rCrP=0.9981. The recovery rates of 4 kinds of standard materials were respectively (86.6±5.6) %, (94.45±7.5) %, (83.4±6.1) %, (78.69±7.3) %.

[2] = test system: MCAO rats; test: Cerebral edema and Evans blue / fluorescein sodium leakage, MCAO; assay type: in vivo, rat; conditions: 24 hours
Description: After surgery, a mixture solution of EB/NF (0.5%, dissolved in normal saline) of 0.25 ml was immediately (immediately after administration in the administration groups) injected via tail vein in the animals. 24 hours later, a normal saline was perfused in the hearts of the rats to get rid of unbound dye. The rats were decollated and the brain tissues were promptly removed and separated into ischemic hemisphere and non-ischemic hemisphere. The two hemispheres were weighted respectively and homogenated with 7.5% (w/v) trichloroacetic acid (TCA). The homogenate was divided into two parts, in which 1 ml homogenate was adjusted with 52 μl NaOH (5N) to reach a neutral pH value, and 200 μl of it was taken out to determine the fluorescence intensity (excitation 485 nm, emission 535 nm), the NF thereof was determined by using a standard curve made with NF solutions of concentration series. Another part of homogenate was centrifuged for 20 min at 12000 g and 4° C. 200 μl supernatant was taken out to a microplate and its absorbance was determined at 620 nm, and EB thereof was determined by using a standard curve made with EB solutions of concentration series. The results were expressed in form of μg EB (or NF)/g brain wet weight. Percentage of brain edema was expressed as: (brain weight in ischemic hemisphere−brain weight in non-ischemic hemisphere)/brain weight in non-ischemic hemisphere×100%.

[3] = in vivo; conditions: SD, rat, iv
[4] = test system: NO and TNF-α; test: NO and TNF-α contents in MCAO rats' serum; assay type: in vivo, rat; conditions: 24 hours after ischemia

**Q.** Which “increase of energy index relative to the model group” value ([1]; first of two values printed for groups 3, 10, 30 mg/kg) does the source give for O=C1CC(c2ccccc2)Oc2cc(O)cc(O)c21 (racemic) [Pinocembrin racemate, pinocembrin racemate] here?
**A.** 34.6%

**Q.** What about the “increase of energy index relative to the model group” value ([1]; second of two values printed for groups 3, 10, 30 mg/kg) of the same compound?
**A.** 45.8%

**Q.** What about the ADP ([1]; 3 mg/kg) of the same compound?
**A.** 0.31 ± 0.04 µmol/g

**Q.** What about the AMP ([1]; 3 mg/kg) of the same compound?
**A.** 0.02 ± 0.00 µmol/g

**Q.** And the ATP ([1]; 3 mg/kg)?
**A.** 1.18 ± 0.18 µmol/g

**Q.** And the CrP ([1]; 3 mg/kg)?
**A.** 3.98 ± 1.23 µmol/g

**Q.** And the “Energy Load” value ([1]; 3 mg/kg)?
**A.** 0.73 ± 0.23

**Q.** And the ADP ([1]; 10 mg/kg)?
**A.** 0.35 ± 0.06 µmol/g

**Q.** What about the AMP ([1]; 10 mg/kg) of the same compound?
**A.** 0.02 ± 0.00 µmol/g

**Q.** And the ATP ([1]; 10 mg/kg)?
**A.** 1.62 ± 0.21 µmol/g

**Q.** What about the CrP ([1]; 10 mg/kg) of the same compound?
**A.** 4.12 ± 1.25 µmol/g

**Q.** What about the “Energy Load” value ([1]; 10 mg/kg) of the same compound?
**A.** 0.88 ± 0.23

**Q.** What about the ADP ([1]; 30 mg/kg) of the same compound?
**A.** 0.38 ± 0.05 µmol/g

**Q.** What about the AMP ([1]; 30 mg/kg) of the same compound?
**A.** 0.02 ± 0.00 µmol/g

**Q.** And the ATP ([1]; 30 mg/kg)?
**A.** 1.97 ± 0.58 µmol/g

**Q.** And the CrP ([1]; 30 mg/kg)?
**A.** 4.43 ± 1.34 µmol/g

**Q.** And the “Energy Load” value ([1]; 30 mg/kg)?
**A.** 0.96 ± 0.29

**Q.** And the “EB leakage (μg/g tissue)” value ([2]; 3 mg/kg iv)?
**A.** 6.16 ± 0.4 μg/g tissue

**Q.** What about the “NF leakage (μg/g tissue)” value ([2]; 3 mg/kg iv) of the same compound?
**A.** 1.48 ± 0.08 μg/g tissue

**Q.** What about the “Percentage of brain edema volume (%)” value ([2]; 3 mg/kg iv, 3 mg/kg) of the same compound?
**A.** 5.5±1.7%

**Q.** And the “EB leakage (μg/g tissue)” value ([2]; 10 mg/kg iv)?
**A.** 5.03 ± 0.8 μg/g tissue

**Q.** What about the “NF leakage (μg/g tissue)” value ([2]; 10 mg/kg iv) of the same compound?
**A.** 1.39 ± 0.20 μg/g tissue

**Q.** And the “Percentage of brain edema volume (%)” value ([2]; 10 mg/kg iv, 10 mg/kg)?
**A.** 4.1±1.5%

**Q.** What about the “EB leakage (μg/g tissue)” value ([2]; 30 mg/kg iv) of the same compound?
**A.** 4.39 ± 0.4 μg/g tissue

**Q.** And the “NF leakage (μg/g tissue)” value ([2]; 30 mg/kg iv)?
**A.** 1.30 ± 0.15 μg/g tissue

**Q.** And the “Percentage of brain edema volume (%)” value ([2]; 30 mg/kg iv, 30 mg/kg)?
**A.** 3.2±2.1%

**Q.** And the LD50 [3]?
**A.** 491 mg/kg

**Q.** And the “NO” value ([4]; 3 mg/kg)?
**A.** 109.80 ± 9.38 µmol/L

**Q.** What about the “TNF-α” value ([4]; 3 mg/kg) of the same compound?
**A.** 1163.09 ± 51.12 pg/mL

**Q.** And the “NO” value ([4]; 10 mg/kg)?
**A.** 107.11 ± 9.13 µmol/L

**Q.** And the “TNF-α” value ([4]; 10 mg/kg)?
**A.** 1104.83 ± 48.43 pg/mL

**Q.** What about the “NO” value ([4]; 30 mg/kg) of the same compound?
**A.** 104.75 ± 5.03 µmol/L

**Q.** What about the “TNF-α” value ([4]; 30 mg/kg) of the same compound?
**A.** 1057.48 ± 48.48 pg/mL
